Reference: US6844328B2, “Polysaccharidic esters of N-derivatives of glutamic acid” (Eurand Pharmaceuticals Ltd., priority 2000, dated 2005)

System: dihydrofolate reductase (DHFR)
Conditions: MT 2.2×10^−5 M; 30° C.; absorbance at 340 nm
Description: Reagents and test samples were added to 3 ml disposable cuvettes to the required volume of distilled water in the following order: H2O (0.1-0 ml), 1.5 M Na-acetate buffer (1 ml), 1.8 M KCl (1 ml), 3 mM NADPH (0.15 ml), test solution in PBS (0-0.1 ml), dihydrofolate reductase (DHFR) (ca. 0.01 Uμl) (5 μl). All reagents were purchased from Sigma. The DHFR was introduced, mixed and incubated at 30° C. for 2 min. The reaction was initiated by the addition of dihydrofolic acid (3 mM, 0.15 ml), and the decrease in absorbance with the time at 340 nm was followed.
A control reaction, which contained 0.1 ml of PBS as test solution was included.

## CN(Cc1cnc2nc(N)nc(N)c2n1)c1ccc(C(=O)N[C@@H](CCC(=O)O)C(=O)O)cc1 [MT]
  inhibition of DHFR activity: completely inhibited
